Test results reported in article PMC7719162, “Positioning of an unprecedented spiro[5.5]undeca ring system into kinase inhibitor space” (Scientific Reports, 2020).
Where two headings read alike, the source gives them in different places.

Legend:
CDK3/cyclin E = target: T1, CDK3/cyclin E (Homo sapiens, UniProt Q00526); conditions: cited from earlier work
T1 construct: purchased Reaction Biology Corp

DAPK2 = target: T2, DAPK2 (Homo sapiens, UniProt Q9UIK4); conditions: cited from earlier work
T2 construct: purchased Reaction Biology Corp

P38b/MAPK11 = target: T3, P38b/MAPK11 (Homo sapiens, UniProt Q15759); conditions: cited from earlier work
T3 construct: purchased Reaction Biology Corp

ROCK2 [1] = target: T4, ROCK2 (Homo sapiens, UniProt O75116); conditions: cited from earlier work
T4 construct: purchased Reaction Biology Corp

AMPK(A2/B1/G1) [2] = target: T5, AMPK(A2/B1/G1) (Homo sapiens, UniProt P54619+P54646+Q9Y478); test: Kinase panel assay (radiolabelled); assay type: biochemical; conditions: 30 μM compound, ATP 10 μM; duplicates Data 1/Data 2; read-out: % Enzyme Activity (relative to DMSO controls)
T5 construct: purchased Reaction Biology Corp

AMPK(A2/B1/G1) [3] = target: T6, AMPK(A2/B1/G1) (Homo sapiens, UniProt P54646); test: Kinase panel assay (radiolabelled); assay type: biochemical; conditions: 30 μM compound, ATP 10 μM; duplicates Data 1/Data 2
T6 construct: purchased Reaction Biology Corp

Haspin = target: T7, Haspin (Homo sapiens, UniProt Q8TF76); test: Kinase panel assay (radiolabelled); assay type: biochemical; conditions: ATP 10 μM
T7 construct: purchased Reaction Biology Corp
T7 sequence (Q8TF76 1-798): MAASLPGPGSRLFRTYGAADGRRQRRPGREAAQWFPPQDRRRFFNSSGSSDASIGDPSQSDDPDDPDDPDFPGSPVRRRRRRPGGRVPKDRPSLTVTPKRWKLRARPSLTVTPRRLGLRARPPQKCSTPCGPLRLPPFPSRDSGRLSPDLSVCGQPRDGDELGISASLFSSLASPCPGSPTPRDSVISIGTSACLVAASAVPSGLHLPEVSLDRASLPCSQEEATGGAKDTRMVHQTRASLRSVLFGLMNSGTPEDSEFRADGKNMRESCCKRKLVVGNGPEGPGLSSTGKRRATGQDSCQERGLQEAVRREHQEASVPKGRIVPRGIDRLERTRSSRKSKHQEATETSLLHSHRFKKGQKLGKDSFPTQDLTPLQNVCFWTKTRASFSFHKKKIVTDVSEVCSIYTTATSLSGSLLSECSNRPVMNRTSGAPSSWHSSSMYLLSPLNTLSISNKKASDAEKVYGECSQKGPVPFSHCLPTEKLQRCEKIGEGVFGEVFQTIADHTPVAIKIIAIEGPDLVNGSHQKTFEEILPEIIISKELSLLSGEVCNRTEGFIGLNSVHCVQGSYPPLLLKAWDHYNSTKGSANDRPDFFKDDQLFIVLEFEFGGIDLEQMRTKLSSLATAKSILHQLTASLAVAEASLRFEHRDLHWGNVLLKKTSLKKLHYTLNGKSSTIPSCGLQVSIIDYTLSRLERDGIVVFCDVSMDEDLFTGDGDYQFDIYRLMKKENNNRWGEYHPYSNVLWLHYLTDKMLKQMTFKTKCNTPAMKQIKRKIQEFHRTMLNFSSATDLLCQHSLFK

PKCa = target: T8, PKCa (Homo sapiens, UniProt P17252); test: Kinase panel assay (radiolabelled); assay type: biochemical; conditions: ATP 10 μM
T8 construct: purchased Reaction Biology Corp

ROCK2 [4] = target: T4, ROCK2; test: Kinase panel assay (radiolabelled); assay type: biochemical; conditions: ATP 10 μM
TRKA-TPM3 = TRKA-TPM3 (Homo sapiens, UniProt P04629); test: Kinase panel assay (radiolabelled); assay type: biochemical; conditions: 30 μM compound, ATP 10 μM, duplicates Data 1/Data 2
ZIPK/DAPK3 = target: T9, ZIPK/DAPK3 (Homo sapiens, UniProt O43293); test: Kinase panel assay (radiolabelled); assay type: biochemical; conditions: ATP 10 μM
T9 construct: purchased Reaction Biology Corp

PI4Kb = target: T10, PI4Kb (Homo sapiens, UniProt Q9UBF8); test: Kinase panel assay (lipid kinase); assay type: biochemical; conditions: 30 μM compound, ATP 10 μM, duplicates Data 1/Data 2
T10 construct: purchased Reaction Biology Corp

PI3K (p110a/p65a) = target: T11, PI3K (p110a/p65a) (Homo sapiens, UniProt P42336); test: Kinase panel assay (lipid kinase); assay type: biochemical; conditions: 30 μM compound, ATP 10 μM, duplicates Data 1/Data 2
T11 construct: purchased Reaction Biology Corp

[5] = target: T12, PI3K (p110a(H1047R)/p85a) (Homo sapiens, UniProt P42336, H1047R); test: Kinase panel assay (lipid kinase); assay type: biochemical; conditions: 30 μM compound, ATP 10 μM, duplicates Data 1/Data 2
T12 construct: purchased Reaction Biology Corp

PGE2 = test: Secreted PGE2 immunoassay in LPS-induced BV-2 cells; assay type: cell-based, murine
Protocol: (§1) To evaluate the secreted level of Prostaglandin E2 (PGE2), Tumor necrosis factor (TNF-α), Interleukin (IL-6), Interleukin (IL-1β), BV2 cells were seeded in a 6 well plate at the density of 1.5 × 10^6 cells/well in DMEM and incubated for 24 h. Seeded cells sere pretreated and, activated with LPS for next 24 h. conditioned medium from treated cells were collected and stored at -80 degree for longer period of time. The amount of TNF-α, IL-1β, PGE2,and IL-6 were evaluated using the competitive enzyme immunoassay kit. PGE2 kit were obtained from (Cayman Chemical, Ann Arbor, MI, USA) and TNF-α, IL-1β, and IL-6 were measured using ELISA development kits (R&D Systems, Minneapolis, MN, USA). All the protocol was exactly followed as written in the manual.

IL-1β = test: Secreted IL-1β ELISA in LPS-induced BV-2 cells; assay type: cell-based, murine
Protocol: as §1

[6] = 30 μM compound, duplicates Data 1/Data 2
[7] = 30 μM compound, duplicates Data 1/Data 2, read-out: % Enzyme Activity (relative to DMSO controls)
[8] = 30 μM, average ± SD, read-out: % Residual Activity at 30 μM
[9] = read-out: % Enzyme Activity (relative to DMSO controls)

T4 sequence (O75116 whole entry): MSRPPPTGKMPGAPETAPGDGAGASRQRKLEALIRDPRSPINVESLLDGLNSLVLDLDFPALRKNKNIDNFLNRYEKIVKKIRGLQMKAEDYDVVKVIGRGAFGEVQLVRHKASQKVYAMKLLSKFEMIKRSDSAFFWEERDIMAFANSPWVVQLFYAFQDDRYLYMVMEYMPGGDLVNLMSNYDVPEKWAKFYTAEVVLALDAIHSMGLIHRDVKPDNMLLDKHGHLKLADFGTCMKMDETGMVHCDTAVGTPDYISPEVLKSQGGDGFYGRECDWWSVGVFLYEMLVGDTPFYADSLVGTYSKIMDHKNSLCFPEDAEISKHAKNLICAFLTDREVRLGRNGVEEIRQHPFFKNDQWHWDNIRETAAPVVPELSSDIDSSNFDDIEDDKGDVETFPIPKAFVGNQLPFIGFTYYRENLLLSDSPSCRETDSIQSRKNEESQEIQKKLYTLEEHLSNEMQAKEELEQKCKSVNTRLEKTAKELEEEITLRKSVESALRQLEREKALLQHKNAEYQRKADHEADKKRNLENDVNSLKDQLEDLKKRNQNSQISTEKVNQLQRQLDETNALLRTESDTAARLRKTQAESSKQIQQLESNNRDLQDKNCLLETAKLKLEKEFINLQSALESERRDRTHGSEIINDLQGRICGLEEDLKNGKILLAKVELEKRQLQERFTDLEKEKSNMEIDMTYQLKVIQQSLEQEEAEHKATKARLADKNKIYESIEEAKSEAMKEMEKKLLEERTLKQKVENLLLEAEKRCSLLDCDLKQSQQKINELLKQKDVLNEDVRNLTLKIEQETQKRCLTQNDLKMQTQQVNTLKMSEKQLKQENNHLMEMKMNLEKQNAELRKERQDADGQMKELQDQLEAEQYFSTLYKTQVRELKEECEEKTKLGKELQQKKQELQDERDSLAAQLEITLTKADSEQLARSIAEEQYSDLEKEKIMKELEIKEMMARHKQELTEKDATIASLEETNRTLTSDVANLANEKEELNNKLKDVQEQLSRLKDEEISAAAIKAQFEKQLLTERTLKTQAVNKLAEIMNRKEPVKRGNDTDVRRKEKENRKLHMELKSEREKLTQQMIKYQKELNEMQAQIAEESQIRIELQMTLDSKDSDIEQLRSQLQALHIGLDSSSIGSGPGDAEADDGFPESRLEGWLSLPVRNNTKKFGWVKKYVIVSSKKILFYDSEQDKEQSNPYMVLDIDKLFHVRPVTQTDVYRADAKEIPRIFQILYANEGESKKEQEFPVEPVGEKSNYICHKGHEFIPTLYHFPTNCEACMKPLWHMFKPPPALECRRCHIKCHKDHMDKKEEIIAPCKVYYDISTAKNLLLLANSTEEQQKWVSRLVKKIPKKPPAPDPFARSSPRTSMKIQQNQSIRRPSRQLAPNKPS
T9 sequence (O43293 whole entry): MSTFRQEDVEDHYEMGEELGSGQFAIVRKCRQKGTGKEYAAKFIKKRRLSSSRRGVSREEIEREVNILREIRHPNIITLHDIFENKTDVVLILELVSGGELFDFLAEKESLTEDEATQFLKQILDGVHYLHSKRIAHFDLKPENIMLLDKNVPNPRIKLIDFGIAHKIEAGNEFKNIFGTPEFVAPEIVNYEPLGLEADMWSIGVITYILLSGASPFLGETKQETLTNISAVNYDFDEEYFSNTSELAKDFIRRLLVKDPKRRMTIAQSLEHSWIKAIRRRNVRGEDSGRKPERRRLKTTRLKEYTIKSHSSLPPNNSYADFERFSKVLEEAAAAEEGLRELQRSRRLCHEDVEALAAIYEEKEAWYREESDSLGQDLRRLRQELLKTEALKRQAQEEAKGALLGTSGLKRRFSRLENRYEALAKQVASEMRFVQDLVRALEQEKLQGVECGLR
T11 sequence (P42336 whole entry): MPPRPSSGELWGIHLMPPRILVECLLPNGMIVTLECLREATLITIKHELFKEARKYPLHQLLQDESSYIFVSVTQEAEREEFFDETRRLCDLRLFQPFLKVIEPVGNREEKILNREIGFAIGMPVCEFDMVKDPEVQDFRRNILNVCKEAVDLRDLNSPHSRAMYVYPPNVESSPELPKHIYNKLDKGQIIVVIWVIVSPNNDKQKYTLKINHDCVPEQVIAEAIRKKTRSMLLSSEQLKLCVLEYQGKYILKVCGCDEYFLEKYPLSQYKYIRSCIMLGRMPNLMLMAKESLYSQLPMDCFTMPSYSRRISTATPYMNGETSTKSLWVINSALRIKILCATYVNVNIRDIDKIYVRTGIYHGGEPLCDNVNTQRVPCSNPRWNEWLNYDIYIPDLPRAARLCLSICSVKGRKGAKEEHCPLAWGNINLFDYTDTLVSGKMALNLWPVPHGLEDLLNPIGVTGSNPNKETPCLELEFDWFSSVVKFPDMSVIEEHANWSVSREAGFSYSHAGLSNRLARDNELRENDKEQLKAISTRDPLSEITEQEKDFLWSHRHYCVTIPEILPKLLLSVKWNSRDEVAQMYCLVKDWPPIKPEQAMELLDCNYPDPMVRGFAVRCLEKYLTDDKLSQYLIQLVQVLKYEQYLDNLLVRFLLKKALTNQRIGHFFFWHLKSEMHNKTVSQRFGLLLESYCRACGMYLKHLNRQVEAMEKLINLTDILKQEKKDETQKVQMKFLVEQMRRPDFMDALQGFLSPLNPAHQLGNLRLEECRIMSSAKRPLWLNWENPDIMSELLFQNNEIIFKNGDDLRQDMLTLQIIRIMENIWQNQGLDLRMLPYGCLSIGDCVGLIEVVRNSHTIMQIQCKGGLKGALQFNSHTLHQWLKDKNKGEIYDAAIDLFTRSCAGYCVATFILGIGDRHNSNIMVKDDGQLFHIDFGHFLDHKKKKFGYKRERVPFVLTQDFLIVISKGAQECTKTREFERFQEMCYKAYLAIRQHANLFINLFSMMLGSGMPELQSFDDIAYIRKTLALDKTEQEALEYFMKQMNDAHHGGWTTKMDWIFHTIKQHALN
T10 sequence (Q9UBF8 whole entry): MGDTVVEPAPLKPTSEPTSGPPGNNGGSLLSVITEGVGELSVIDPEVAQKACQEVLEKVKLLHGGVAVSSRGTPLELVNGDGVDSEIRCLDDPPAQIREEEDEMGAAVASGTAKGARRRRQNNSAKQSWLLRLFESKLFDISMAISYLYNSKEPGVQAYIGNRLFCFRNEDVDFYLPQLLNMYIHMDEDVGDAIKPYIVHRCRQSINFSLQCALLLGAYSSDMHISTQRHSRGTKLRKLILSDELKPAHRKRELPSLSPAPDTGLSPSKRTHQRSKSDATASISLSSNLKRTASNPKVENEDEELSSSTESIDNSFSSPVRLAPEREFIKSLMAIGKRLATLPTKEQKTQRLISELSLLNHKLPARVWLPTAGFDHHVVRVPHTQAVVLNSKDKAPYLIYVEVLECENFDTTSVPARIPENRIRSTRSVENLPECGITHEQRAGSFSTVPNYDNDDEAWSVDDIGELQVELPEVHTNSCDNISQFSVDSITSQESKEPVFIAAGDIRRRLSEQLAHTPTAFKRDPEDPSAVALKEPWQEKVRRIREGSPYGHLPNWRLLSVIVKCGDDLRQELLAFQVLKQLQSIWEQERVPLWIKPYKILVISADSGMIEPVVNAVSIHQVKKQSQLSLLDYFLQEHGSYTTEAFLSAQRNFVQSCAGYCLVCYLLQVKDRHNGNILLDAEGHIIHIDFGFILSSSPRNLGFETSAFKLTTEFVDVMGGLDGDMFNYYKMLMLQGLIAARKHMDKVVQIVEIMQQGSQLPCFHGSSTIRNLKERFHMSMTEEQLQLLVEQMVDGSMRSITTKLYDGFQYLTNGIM
Chain of TRKA-TPM3 (P04629 399-796): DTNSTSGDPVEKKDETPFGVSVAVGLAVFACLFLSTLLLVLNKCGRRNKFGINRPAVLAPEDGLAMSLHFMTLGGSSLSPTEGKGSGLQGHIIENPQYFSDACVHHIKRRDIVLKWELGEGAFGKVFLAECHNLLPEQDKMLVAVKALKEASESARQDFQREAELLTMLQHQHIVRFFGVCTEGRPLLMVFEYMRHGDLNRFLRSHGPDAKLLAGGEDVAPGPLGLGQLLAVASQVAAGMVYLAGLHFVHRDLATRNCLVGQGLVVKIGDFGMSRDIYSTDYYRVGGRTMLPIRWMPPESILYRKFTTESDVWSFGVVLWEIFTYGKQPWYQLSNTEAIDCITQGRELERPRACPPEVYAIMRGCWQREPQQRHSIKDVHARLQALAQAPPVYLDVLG
Chain of TRKA-TPM3 (P06753 2-258 partner): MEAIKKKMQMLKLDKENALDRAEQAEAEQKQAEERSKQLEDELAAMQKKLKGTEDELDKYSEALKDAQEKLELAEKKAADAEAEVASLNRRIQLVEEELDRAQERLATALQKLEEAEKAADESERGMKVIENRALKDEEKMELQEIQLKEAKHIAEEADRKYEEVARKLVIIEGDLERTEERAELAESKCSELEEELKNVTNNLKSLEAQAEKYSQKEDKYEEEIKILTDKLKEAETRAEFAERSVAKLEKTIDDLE

O=C1C=CC2(C=C1)OCC(Cc1cc(C(F)(F)F)cc(C(F)(F)F)c1)C(=O)N2c1ccccc1 (racemic) [1c]
% Residual Activity at 30 μM (CDK3/cyclin E): 59.3 ± 1.2%
% Residual Activity at 30 μM (DAPK2): 120.1 ± 0.6%
% Residual Activity at 30 μM (P38b/MAPK11): 87.0 ± 1.1%
% Residual Activity at 30 μM (ROCK2 [1]): 103.9 ± 2.4%

O=C1C=CC2(C=C1)OCC(Cc1cn(-c3cccc(Cl)c3)nn1)C(=O)N2c1ccccc1 (stereo not shown) [2d, 3-((1-(3-Chlorophenyl)-1H-1,2,3-triazol-4-yl)methyl)-5-phenyl-1-oxa-5-azaspiro[5.5]undeca-7,10-diene-4,9-dione]
remaining activity at 30 µM (AMPK(A2/B1/G1) [2]): 50.8%
% Enzyme Activity (relative to DMSO controls) (AMPK(A2/B1/G1) [3]): 47.50%
% Enzyme Activity (relative to DMSO controls) (Haspin; [6]): 70.31%
remaining activity at 30 µM (Haspin; [7]): 71.6%
remaining activity at 30 µM (Haspin; [8]): 70.9 ± 0.9%
% Enzyme Activity (relative to DMSO controls) (PKCa; [6]): 62.24%
remaining activity at 30 µM (PKCa; [7]): 63%
remaining activity at 30 µM (PKCa; [8]): 62.6 ± 0.5%
% Enzyme Activity (relative to DMSO controls) (ROCK2 [4]; [6]): 98.38%
remaining activity at 30 µM (ROCK2 [4]; [7]): 100%
remaining activity at 30 µM (ROCK2 [4]; [8]): 99.4 ± 1.5%
% Enzyme Activity (relative to DMSO controls) (TRKA-TPM3): 95.56%
remaining activity at 30 µM (TRKA-TPM3; [9]): 98.2%
% Enzyme Activity (relative to DMSO controls) (ZIPK/DAPK3; [6]): 86.95%
remaining activity at 30 µM (ZIPK/DAPK3; [7]): 88.8%
remaining activity at 30 µM (ZIPK/DAPK3; [8]): 87.9 ± 1.3%
% Enzyme Activity (relative to DMSO controls) (PI4Kb): 81.00%
remaining activity at 30 µM (PI4Kb; [9]): 81.6%
% Enzyme Activity (relative to DMSO controls) (PI3K (p110a/p65a)): 82.25%
remaining activity at 30 µM (PI3K (p110a/p65a); [9]): 83.8%
% Enzyme Activity (relative to DMSO controls) [5]: 131.08%
remaining activity at 30 µM [5, 9]: 132%
secreted level of PGE2 (PGE2): concentration-dependent manner
IL-1β level (IL-1β): concentration-dependent manner
